Publication PMC4528135, “Kinetic Investigations of the Role of Factor Inhibiting Hypoxia-inducible Factor (FIH) as an Oxygen Sensor” (The Journal of Biological Chemistry, 2015)
Where “and” joins values, the source holds several entries; their conditions need not be identical. Equal values may be shown once.

Columns and labels:
Type in all cases: biochemical
FIH [1] = biological target: T1, FIH (Homo sapiens, UniProt Q9NWT6); assay: Steady-state kinetics of FIH-catalyzed peptide/protein hydroxylation (MALDI-TOF-MS or LC-MS); conditions: for Km / kcat^app: 50 μM Fe(II), 1 mM L-ascorbate; for kcat^app: MALDI-TOF-MS or LC-MS; for 2OG concentration above which substrate inhibition was observed: FIH steady-state assays with the named CAD peptide
T1 construct: Full-length recombinant FIH, two- and three-consensus ankyrin repeats (2CA and 3CA) were produced as described; His6 (cleaved yes); made in house; host or cells: Escherichia coli BL21(DE3)
Method: Enzymatic assays were conducted as described ([46], [47]). Unless otherwise stated, the assay mixture typically contained 5 μM FIH, 500 μM substrate, 500 μM 2OG, 1 mM L-ascorbate, and 50 μM Fe(NH4)2(SO4)2 or 4 μM PHD2, 100 μM substrate, 300 μM 2OG, 4 mM L-ascorbate, and 50 μM Fe(NH4)2(SO4)2. For HIF-1α CODD19-mer, the background levels of methionine oxidation resulting from assay conditions were subtracted based on non-enzymatic controls ([48]).
(§1) The O2 dependence of FIH-catalyzed reactions was determined by conducting enzymatic assays in an “In vivo 500 Hypoxia Workstation” (Ruskinn) using buffers pre-equilibrated under different pO2 values for 24 h. The O2 dependence of PHD2-catalyzed reactions was determined by conducting enzymatic assays in sealed glass vials with variable N2/O2 contents ([42]). Reactions were stopped by spotting samples onto a matrix-assisted laser desorption/ionization-time of flight mass spectrometry (MALDI-TOF-MS) target plate and immediately mixing with α-cyano-4-hydroxycinnamic acid matrix. Hydroxylation levels were assessed by MALDI-TOF-MS as described ([46]).
Samples obtained from FIH kinetic assays with 2CA and 3CA were diluted to a substrate concentration of 5 μM and then analyzed using a Waters® LCT Classic mass spectrometer by electrospray ionization in positive ion mode. An Agilent HP1100 LC system was used, and samples were run through a Phenomenex® Aeris Widepore 3.6-μm XB-C8 150 × 2.1-mm column at 0.5 ml/min in a gradient of phase A (95% H2O, 5% CH3CN, 0.01% formic acid) to phase B (95% CH3CN, 5% H2O, 0.01% formic acid). The LC/MS used the following method: 0–1.5 min, 100% A and then 1.5–12 min linear gradient from 0 to 100% B, 12–14 min 100% B, and 15.0–19.0 min 100% A for re-equilibration of the column. Data were collected and analyzed using MassLynx version 4.0.

FIH [2] = biological target: T1, FIH; assay: O2 dependence of FIH-catalyzed hydroxylation (hypoxia workstation); conditions: for Km: FIH with the named substrate, 5 μM FIH, 500 μM peptide, 50 μM Fe(II), 1 mM 2OG, 1 mM L-ascorbate, 50 mM HEPES pH 7.5, 37 °C, hypoxia workstation at different pO2, triplicate assays, read-out: Km^app(O2)
Method: as §1
FIGURE 4. O2 dependence of FIH- and PHD2-catalyzed hydroxylation of HIF-1/2α. A, O2 dependence of PHD2-catalyzed hydroxylation of HIF-1/2α CODD/NODD 19-mer peptides. 4 μM PHD2, peptide (varied), 50 μM Fe(II), 2OG (varied), 4 mM L-ascorbate in HEPES 50 mM (pH 7.5) were incubated at 37 °C. The different O2 levels were maintained using mass flow controllers ([42]), and the hydroxylation levels were analyzed by MALDI-TOF-MS. B, O2 dependence of FIH-catalyzed hydroxylation of CAD HIF-1/2α 35-mer peptides. Conditions were as follows. 5 μM FIH, 500 μM peptide, 50 μM Fe(II), 1 mM 2OG, 1 mM L-ascorbate in HEPES 50 mM (pH 7.5) were incubated at 37 °C in a hypoxia work station under different pO2. […] Error bars, S.D. of triplicate assays.
FIGURE 8. Time course and O2 dependence of the FIH-catalyzed hydroxylation of HIF-α CAD and ARD substrates. Conditions were as follows. 5 μM FIH, 500 μM peptide, 50 μM Fe(II), 1 mM 2OG, 1 mM L-ascorbate in HEPES 50 mM (pH 7.5) were incubated at 37 °C. For O2 dependence studies, reactions were carried out in a hypoxic work station under different pO2 (assays at >20% O2 conducted using mass flow controllers ([42])). The different hydroxylation levels were analyzed by MALDI-TOF-MS or by LC-MS (for 2CA and 3CA). […] Error bars, S.D. of triplicate assays. A, time course of consensus ARD substrate hydroxylation (tankyrase-1 (tnkrs-1 20-mer and 35-mer) and one-consensus ankyrin repeat 20-mer (1CA)). B, time course of ARD peptide hydroxylation (one-consensus ankyrin repeat 20-mer (1CA), two ankyrin repeats (2CA), and three ankyrin repeats (3CA)). C, O2 dependence of HIF-1/2α CAD, 1CA, and tnkrs-1_35-mer hydroxylation. D, O2 dependence of 1CA, 2CA, and 3CA hydroxylation.

FIH [3] = biological target: T1, FIH; assay: Stopped-flow UV-visible spectroscopy, FIH·Fe(II)·2OG·substrate + O2; conditions: anaerobic 0.5 mM FIH, 1 mM substrate, 5 mM 2OG, 0.4 mM Fe(II), 50 mM HEPES pH 7.5, mixed 1:1 with O2-saturated buffer at 5 °C; double exponential fit
Method: Stopped-flow UV-visible spectroscopy experiments were performed as described previously ([32], [42]). Anerobically prepared assay mixtures containing 0.5 mM apo-FIH, 1 mM substrate, 5 mM 2OG, 0.4 mM Fe(II) or 0.8 mM apo-PHD2, 1 mM substrate, 5 mM 2OG, 0.5 mM Fe(II) were rapidly mixed with O2-free/O2-saturated buffer. The reaction was observed over 1000 s using a photodiode array detector, and kinetic traces were analyzed using Origin version 8.51 software. Data were fitted with a double exponential function (y = A1 × exp(−kriset) + A2 × exp(−kfallt) + y0). The A1, A2, and y0 parameters were restricted with upper limits to match the observed amplitude/offset changes.
Kinetic traces were fitted using a double exponential function; the fitting parameters of intermediate formation and decay are summarized in Table 3.
FIGURE 10. Stopped-flow UV-visible absorbance changes upon FIH-catalyzed hydroxylation of HIF-1/2α CAD and ARD substrates. Reaction mixtures containing anaerobic 0.5 mM apo-FIH, 0.4 mM Fe(II), 5 mM 2OG, and 1 mM peptide in HEPES 50 mM (pH 7.5) were rapidly mixed with O2-saturated buffer at 5 °C in 1:1 ratio and analyzed using a photodiode array detector. The data were fitted with a double exponential function. A, decay at 500 nm (representing enzyme·substrate complex depletion) observed upon FIH-catalyzed hydroxylation of ARD substrates compared with HIF-1/2α CAD. B, formation and degradation of 310 nm species observed upon FIH-catalyzed HIF-1/2α CAD and ARD hydroxylation. C, decay at 500 nm observed upon FIH-catalyzed hydroxylation of 1CA, 2CA, and 3CA substrates.

[4] = FIH with the named substrate, 0.1–5 μM FIH, 2OG varied, 50 mM HEPES pH 7.5, 37 °C, MALDI-TOF-MS (LC-MS for 2CA, 3CA), triplicate assays, read-out: Km^app(2OG)
[5] = FIH, 0.1–5 μM FIH, substrate varied, 2OG fixed, 50 mM HEPES pH 7.5, 37 °C, MALDI-TOF-MS (LC-MS for 2CA, 3CA), triplicate assays, read-out: Km^app(peptide)

T1 sequence (Q9NWT6 whole entry): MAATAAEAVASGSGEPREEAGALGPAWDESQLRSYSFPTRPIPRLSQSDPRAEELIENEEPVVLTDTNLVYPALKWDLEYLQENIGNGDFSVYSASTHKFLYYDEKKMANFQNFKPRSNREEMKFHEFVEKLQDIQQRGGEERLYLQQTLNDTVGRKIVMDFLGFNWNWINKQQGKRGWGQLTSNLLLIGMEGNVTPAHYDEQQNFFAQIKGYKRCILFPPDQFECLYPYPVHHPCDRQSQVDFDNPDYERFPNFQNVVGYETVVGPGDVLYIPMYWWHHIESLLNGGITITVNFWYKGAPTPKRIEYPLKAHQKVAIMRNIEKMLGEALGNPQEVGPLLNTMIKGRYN

Sequence	Km (FIH [1]; [4]) [µM]	kcat^app (FIH [1]; FIH, 50 mM HEPES pH 7.5, 37 °C) [s⁻¹]	Km (FIH [1]; [5]) [µM]	Km (FIH [2]) [µM]	Stopped-flow, 500 nm (FIH) kfall phase (FIH [3]) [s⁻¹]	Stopped-flow, 500 nm (FIH) krise phase (FIH [3])	Km (FIH [1]; 5 μM FIH, peptide 500-1000 µM fixed, 2OG varied, Figure S3B, read-out: Km^app(2OG), fitting with a substrate inhibition model) [µM]	2OG concentration above which substrate inhibition was observed (FIH [1]) [µM]	Half-saturation of O2 (FIH [2]; FIH-catalyzed hydroxylation, hypoxia workstation, 37 °C)	Km^app(O2) fold higher than in the presence of 1CA and 2CA (FIH [2]; FIH) [fold]
AAGYNNLEVAEYLLEHGADVNAQDKGGLIPLHNAA [tnkrs-1_35-mer, 35-mer fragment of tankyrase-1, ARD substrate of FIH]	61 ± 7	3.0 ± 0.2	14 ± 4	50 ± 10	14.8 ± 0.2	0.27 ± 0.03 s⁻¹				
DESGLPQLTSYDCEVNAPIQGSRNLLQGEELLRAL [HIF-1α CAD35-mer]	110 ± 20	0.56 ± 0.04	180 ± 30	110 ± 30	4.5 ± 0.3	0.009 ± 0.005 s⁻¹	300 ± 100	> 100	9–11 % O2	
ESYLLPELTRYDCEVNVPVLGSSTLLQGGDLLRAL [HIF-2α CAD35-mer]	19 ± 6	0.049 ± 0.005	315 ± 40	110 ± 10	4.9 ± 0.2	0.017 ± 0.01 s⁻¹		> 700		
GSHMGSDLGKKLLEAARAGQDDEVRILMANGADVAAKDKNGSTPLHLAARNGHLEVVKLLLEAGADVNAQDKFGKTAFDISIDNGNEDLAEILQ [3CA, recombinant three-consensus ankyrin repeat protein produced in Escherichia coli]	200 ± 60	0.6 ± 0.2	60 ± 15	120 ± 20	10.5 ± 0.1	1.7 s⁻¹ and 1.7 ± 0.3 s⁻¹				2
HLEVVKLLLEAGADVNAQDK [1CA20-mer]	290 ± 50	1.6 ± 0.1	25 ± 7	40 ± 10	17.6 ± 0.1	0.4 ± 0.1 s⁻¹				
SDKNGSTPLHLAARNGHLEVVKLLLEHGADVNAQDKWGKTAFDISIDNGNEDLAEILQ [2CA, recombinant two-consensus ankyrin repeat protein produced in Escherichia coli]	110 ± 30	1.7 ± 0.2	16 ± 3	56 ± 15	11.9 ± 0.2	0.6 ± 0.1 s⁻¹				
